By ED50 is commonly meant the dose at which the effect has come halfway, by size or by number of responders. High values mean a need for a large dose, low ones an effect at a small dose.

9 compounds from ChEMBL document CHEMBL1133497, “Design and synthesis of anticonvulsive agents as gamma-vinyl GABA-based potential dual acting prodrugs and their biological activities” (2000) can be followed below.

Holding throughout (type): functional
The species named for assay [1] is Mus musculus. The assay is described as follows: Effective dose required for anticonvulsive activity in bicuculline (BIC) test.
Assay [2] is filed under the species Mus musculus. Briefly: Effective dose required for anticonvulsive activity in maximal electroshock seizure (MES) test.
The species named for assay [3] is Mus musculus. The assay is described as follows: Effective dose required for anticonvulsive activity in pentylenetetrazole (PTZ) test.
Assay [4] is filed under the species Mus musculus. The assay is described as follows: Anticonvulsive activity in picrotoxin (PCR) induced seizure test.
Assay [5] has as its system Mus musculus. Briefly: Protection from picrotoxin-induced (0.27 mmol/kg) convulsion over 16 hr at 100 mg/kg in 4 mice.
Assay [6] relates to Mus musculus. The assay is described as follows: Protection from picrotoxin-induced (0.27 mmol/kg) convulsion over 3 hr at 100 mg/kg in 4 mice.
For assay [7], the system named is Mus musculus. The assay is described as follows: Protection from picrotoxin-induced (0.27 mmol/kg) convulsion over 6 hr at 100 mg/kg in 4 mice.
Assay [8] concerns Mus musculus. Briefly: Protection from picrotoxin-induced (0.27 mmol/kg) convulsion over 9 hr at 100 mg/kg in 4 mice.
The species named for assay [9] is Mus musculus. Briefly: Effective dose required for anticonvulsive activity in bicuculline (BIC) test; Not effective.
The species named for assay [10] is Mus musculus. Briefly: Effective dose required for anticonvulsive activity in pentylenetetrazole (PTZ) test; Not effective.
The species entered for assay [11] is Mus musculus. Briefly: Effective dose required for anticonvulsive activity in maximal electroshock seizure (MES) test; Not effective. In general terms: The maximal electroshock test induces tonic seizures with an electrical stimulus.
The test system of assay [12] is Mus musculus. Briefly: Effective dose required for anticonvulsive activity in pentylenetetrazole (PTZ) test at >0.1 mmol/kg.
For assay [13], the species on record is Mus musculus. The assay is described as follows: Anticonvulsive activity in picrotoxin (PCR) induced seizure test (ineffective).

Structures are written as SMILES.

Turning to `C=CC(CCC(=O)OC)NC(=O)C1CCNCC1` (stereo not drawn), the ED50 in [1] is 460 µmol/kg; in assay [2], greater than 540 µmol/kg; in [3], greater than 540 µmol/kg; in assay [4], 390 µmol/kg.
With `C=CC(N)CCC(=O)N1CCCC(C(=O)OC)C1` (stereo not drawn), the 50% effective dose (ED50) in [1] is 140 µmol/kg; in assay [2], greater than 540 µmol/kg; in [3], 150 µmol/kg; in assay [4], 100 µmol/kg. Besides, the “No. of mice protected” value in assay [5] stood at 0; in assay [6], 2; in assay [7], 0; in [8], 0.
The compound `O=C(O)C1CCNCC1` [ISONIPECOTIC ACID] displayed an ED50 in assay [9] greater than 1000 µmol/kg.
For the compound `C=CC(CCC(=O)OC)NC(=O)C1CCCNC1` (stereo not drawn), the median effective dose (ED50) in assay [1] was 310 µmol/kg; in assay [2], greater than 540 µmol/kg; in assay [3] it was 410 µmol/kg; in assay [4] it was 260 µmol/kg.
In the case of `C=CC(N)CCC(=O)N1CCC(C(=O)OC)CC1` (stereo not drawn), the ED50 in assay [1] was 150 µmol/kg; in assay [2], greater than 540 µmol/kg; in assay [3], 320 µmol/kg; in [4], 260 µmol/kg. Moreover, the “No. of mice protected” value is recorded as 0 in [5], 2 in [6], 2 in assay [7] and 0 in [8].
Regarding `C=CC(N)CCC(=O)O` (stereo not drawn) [VIGABATRIN], the ED50 in assay [1] was 220 µmol/kg; in [10] it was greater than 1000 µmol/kg; in [4], 210 µmol/kg; in [11], greater than 1000 µmol/kg. For the same compound, the “No. of mice protected” value in assay [5] is 0; in assay [6], 4; in assay [7], 4; in assay [8], 3.
As to `C=CC(N)CCC(=O)N1CCCC1=O` (stereo not drawn), the ED50 is 200 µmol/kg in assay [1], greater than 540 µmol/kg in assay [2], greater than 540 µmol/kg in assay [3] and 260 µmol/kg in assay [4].
`O=C(O)C1CCCNC1` (stereo not drawn) [NIPECOTIC ACID]: the ED50 in [9] and in [11] was greater than 1000 µmol/kg throughout.
Turning to `O=C1CCCN1` [2-PYRROLIDONE], the ED50 in [9] is greater than 1000 µmol/kg; in assay [12] it was 540 µmol/kg; in assay [13] it was greater than 1000 µmol/kg; in [11], greater than 1000 µmol/kg.
